The source of these data is PMC2814954 (Biochemical pharmacology, 2009).

One series relates to HepG2 cells. Kind of series: C1-BODIPY-C12 fatty acid uptake inhibition in HepG2 cells. The class given is cell-based. The conditions noted are these: Homo sapiens, HepG2, read-out: HepG2 IC50.
Series [1] concerns Caco-2 cells. Kind of series: Reversibility of fatty acid uptake inhibition after 24 h recovery. The class given is cell-based, human. The conditions noted are these: compound 40 μM for 1 h, washed, mean ± SD.
In series [2] the test system is long chain acyl-CoA synthetase (Acsl). Description: Oleoyl-CoA synthetase. Format: biochemical, human. The conditions noted are these: Caco-2 cells pretreated 1 h; for Oleoyl CoA synthetase activity after compound treatment: rinsed, total cell extracts.
The test system of the next series is 3T3-L1 adipocytes. Kind of series: C1-BODIPY-C12 fatty acid uptake inhibition in 3T3-L1 adipocytes. Format: cell-based. The conditions noted are these: Mus musculus, 3T3-L1, read-out: 3T3-L1 Adipocytes IC50.
The test system of series [3] is Caco-2 cells. Description: C1-BODIPY-C12 fatty acid uptake inhibition in Caco-2 cells. Conditions: for IC50: Homo sapiens, Caco-2, read-out: Caco-2 IC50; for % Transport Standard Assay: compound 40 μM, Caco-2 cells, % of no-compound control, mean ± SD. Format: cell-based, human.
The subject of series [4] is Caco-2 cells. Description: Glucose. The class given is cell-based, human. The conditions noted are these: 1 h preincubation.
Series [5] deals with Caco-2 cells. Description: MTT cytotoxicity assay in Caco-2 cells. The conditions noted are these: 24 h.
Where [6] appears, read: 50 μM, Caco-2 cells (10 times the IC50 dosage).

Molecules are shown by their SMILES.

For the compound `COc1cc(/C=C2/SC(=S)N(c3cccc(Cl)c3)C2=O)cc(Br)c1O` [CB-2, (5E)-5-[(3-bromo-4-hydroxy-5-methoxyphenyl)methylene]-3-(3-chlorophenyl)-2-thioxothiazolidin-4-one], the IC50 was 7.55 ± 1.23 µM in the series with HepG2 cells, 231 ± 33.5 µM in the series with 3T3-L1 adipocytes and 3.99 ± 0.32 µM in the series with Caco-2 cells [3]. Further, in the series on Caco-2 cells [1], the “% Transport after 24 Hour Recovery” value is listed as 93 ±13%. The “Inhibition of oleoyl CoA synthetase activity” value in series [2] (50 μM (10 times the IC50), cell extracts) was “about 50%”. Besides, the “% Transport Standard Assay” value in the series on Caco-2 cells [3] turned out to be 46 ± 3%. Moreover, the 2-NBDG glucose transport entry in the series with Caco-2 cells [4] (20 μM) is recorded as “not affected”. Further, the “Cellular toxicity (MTT assay)” value in the series on Caco-2 cells [5] (setting [6]) is listed as “not toxic”.

As for `O=c1cc(-c2ccc([N+](=O)[O-])cc2)nc2c(-c3ccc(Cl)cc3)c(Cc3ccccc3)[nH]n12` [CB-5, 2-benzyl-3-(4-chlorophenyl)-5-(4-nitrophenyl)-1H-pyrazolo[5,1-b]pyrimidin-7-one], the IC50 with HepG2 cells turned out to be 10.2 ± 1.26 µM; with 3T3-L1 adipocytes it was 901 ± 205 µM; in the series on Caco-2 cells [3], 6.34 ± 0.93 µM. The “% Transport after 24 Hour Recovery” value with Caco-2 cells [1] is 88 ±18%. In series [2], the “Oleoyl CoA synthetase activity after compound treatment” value was “not reduced”. Besides, the “% Transport Standard Assay” value in the series on Caco-2 cells [3] turned out to be 54 ± 1%. Besides, the 2-NBDG glucose transport result in the series on Caco-2 cells [4] (20 μM) was “not affected”. Also, the “Cellular toxicity (MTT assay)” value in the series on Caco-2 cells [5] (setting [6]) is “not toxic”.

As for `Oc1c(C2=NCCNC(C(F)(F)F)=C2)ccc2ccccc12` [CB-6, 2-[7-(trifluoromethyl)-2,3-dihydro-1H-1,4-diazepin-5-yl]naphthalen-1-ol], in the series with Caco-2 cells [1], the “% Transport after 24 Hour Recovery” value came to 74 ± 12%. Further, the “Oleoyl CoA synthetase activity after compound treatment” value in series [2] is given as “not reduced”. In addition, the IC50 in the series on Caco-2 cells [3] was 4.93 ± 0.4 µM. Further, the 2-NBDG glucose transport entry with Caco-2 cells [4] (20 μM) was “not affected”. In the series with Caco-2 cells [5] (setting [6]), the “Cellular toxicity (MTT assay)” value was “not toxic”.

`O=C1C=CC=CC1=C1NNC2(S1)C(=O)Nc1ccc(Br)cc12` (stereo not drawn) [CB-16, 5′-bromo-5-(6-oxocyclohexa-2,4-dien-1-ylidene)spiro[1,3,4-thiadiazolidine-2,3′-1H-indole]-2′-one]: the “% Transport after 24 Hour Recovery” value with Caco-2 cells [1] stood at 99 ± 16%. For the same compound, the “Oleoyl CoA synthetase activity after compound treatment” value in series [2] is recorded as “not reduced”. For the same compound, the IC50 with Caco-2 cells [3] was found to be 6.66 ± 0.64 µM. Moreover, the 2-NBDG glucose transport result in the series with Caco-2 cells [4] (20 μM) was “not affected”. In addition, in the series on Caco-2 cells [5] (setting [6]), the “Cellular toxicity (MTT assay)” value is listed as “not toxic”.

Consider `OCC(CCc1c[nH]c2ccccc12)c1c[nH]c2ccccc12` (stereo not drawn) [NCI-3, 2,4-bis(1H-indol-3-yl)butan-1-ol], for which the results for the IC50 with HepG2 cells, in the series with 3T3-L1 adipocytes and in the series on Caco-2 cells [3] were 84.1 ± 14.1 µM, 143 ± 22.4 µM and 29.2 ± 3.64 µM, respectively. Besides, the “Oleoyl CoA synthetase activity after compound treatment” value in series [2] is recorded as “not reduced”. In addition, in the series on Caco-2 cells [3], the “% Transport Standard Assay” value was 52 ± 2%. In the series with Caco-2 cells [4] (50 μM), the 2-NBDG glucose transport entry is reported as “reduced 2-NBDG transport slightly”. Besides, the “Cellular toxicity (MTT assay)” value in the series on Caco-2 cells [5] (100 μM, Caco-2 cells) was “not toxic”.
